Laboratory results published in patent US12667584B2, “Adenosine analog and its use in regulating the circadian clock” (NATIONAL INSTITUTE OF BIOLOGICAL SCIENCES, BEIJING, priority 2017, dated 2026).

Assays:
kidney clocks = assay: Phase shift of kidney clock; type: cell-based
SCN culture slice = assay: Ex vivo SCN slice culture from Per2::LUC mice, lumicycle; type: cell-based, mouse
Source text: Tissue culture, drug treatment and Real-Time Monitoring of Circadian Oscillations: 8 week-old male mPer2 Luciferase knockin mice were Sacrificed cervical dislocation. Then wipe the skin and neck with cotton containing 70% ethanol in a sterile hood. For SCN slice culture, firstly remove the eye balls from the head with scissors, decapitate and cut the skin. Then open the skull, remove all bone until the olfactory bulbs can be seen, cut the optic nerve between the olfactory bulbs and the hemispheres, and finally harvest the whole brain into ice cold HBSS. Trim the brain in HBSS by removing the cerebellum and olfactory bulbs. Attach the brain to a sample tray by glue with the rostral tip upwards and ventral surface closest to the cutting blade, then immediately fill the tray with ice cold HBSS and set the tray to the vibratome. Set the vibratome frequency at the maximum and the speed to the medium. To reach the SCN area quickly, the start cutting off thicker sections should be 500-800 μm. Reduce the sections thicker to 100 μm when the optic chiasm becomes wider. When the two SCN nuclei start to appear, collect the slice with transfer pipettes and check slices under dissecting microscope. […] Data was extract and analyzed with LumiCycle Analysis software. […]

PER2 locus = assay: ChIP-qPCR analysis for the PER2 locus; type: cell-based
Procedure: Human and mouse circadian oscillators are driven by interlocked transcriptional and translational feedback loop. Bmal1 and Clock are transcriptional factors and function as positive arm to active negative arm genes transcription, including Per and Cry. Per and Cry are transcriptional repressor and feedback repress Bmal1/Clock's transcription activity thereby inhibit its own transcription. […] We also confirmed this by ChIP-qPCR experiments. Cordycepin treatment 30 min immediately release Cry1/2 and Ruvbl2 binding at Per2 gene promoter.

E-box genes = assay: Nascent pre-mRNA sequencing (nascent-seq) of U2OS cells; type: cell-based, human
Source text: Manipulating DRB's well characterized target CDK9 protein with AID degron mimics the phase shift curve of DRB in Per2-dLuc cells. […] Using nascent seq experiment, we found DRB treatment repress majority genes expression, but exclusively activates E-box containing gene both in vitro (FIG. 4).
(red color). […] Thus, perhaps the partial inhibition of CDK9 stimulates, rather than represses, the transcription of E-box genes. Right napel is UCSC genome browser views of E-box containing (NR1D1 and DBP) or non-E-box containing (BMAL1 and CRY1) clock genes

CDK9 = biological target: T1, CDK9 (Homo sapiens, UniProt P50750); assay: Biotinylated compounds pull-down in U2OS cell lysate, CDK9; type: binding
T1 construct: Every 10^8 unsynchronized U2OS cells were collected, homogenized into 2 ml lysis buffer; endogenous in cells; host or cells: U2OS
Procedure: (§1) Biotinylated Compounds Pull-down, SPR analysis and Immunoprecipitation: The interaction between biotinylated compounds and their target proteins were proceeded as follow. Every 10^8 unsynchronized U2OS cells were collected, homogenized into 2 ml lysis buffer (25 mM MOPS pH7.2, 15 mM EGTA, 15 mM MgCl2, 1 mM DTT, 60 mM β-glycerophosphate, 1 mM Na3VO4, 1 mM NaF, 1 mM phenyl phosphate, Complete Protease Inhibitor Cocktail), and sonicated 6 times for 30 s at 4° C. with a Diagenode bioruptor. After sonication, NP-40 (final 0.5%) was added, incubated 15 min on ice, centrifuged at full speed for 20 min at 4° C. The resultant supernatant was firstly incubated with Pentostatin (final concentration at 5 μg/ml) for 2 h at 4° C. with rotation, and then split into 4 groups. 200 pmol cordycepin, 200 pmol DRB, and DMSO (2 groups, final 0.1%) was added respectively and further incubated for 1 h. […] The eluted protein was analyzed with western blot. The binding affinity of cordycepin against the RUVBL2 protein was measured via SPR technology using a Biacore T200 instrument (GE Healthcare) at room temperature. […] The binding kinetics and binding affinity of cordycepin against the RUVBL2 protein were determined with BIA evaluation software (GE healthcare). […] Immunoprecipitated protein complex was then washed 3 times with IP lysis buffer, boiled and analyzed with western blot. […]

Ruvbl2 = Ruvbl2 (Homo sapiens, UniProt Q9Y230); assay: Biotinylated compounds pull-down in U2OS cell lysate, RUVBL2; type: binding; set-up: Every 10^8 unsynchronized U2OS cells were collected, homogenized into 2 ml lysis buffer; endogenous in cells; host or cells: U2OS; details: competed by biotin free compound
Procedure: as §1

T1 sequence (P50750 whole entry): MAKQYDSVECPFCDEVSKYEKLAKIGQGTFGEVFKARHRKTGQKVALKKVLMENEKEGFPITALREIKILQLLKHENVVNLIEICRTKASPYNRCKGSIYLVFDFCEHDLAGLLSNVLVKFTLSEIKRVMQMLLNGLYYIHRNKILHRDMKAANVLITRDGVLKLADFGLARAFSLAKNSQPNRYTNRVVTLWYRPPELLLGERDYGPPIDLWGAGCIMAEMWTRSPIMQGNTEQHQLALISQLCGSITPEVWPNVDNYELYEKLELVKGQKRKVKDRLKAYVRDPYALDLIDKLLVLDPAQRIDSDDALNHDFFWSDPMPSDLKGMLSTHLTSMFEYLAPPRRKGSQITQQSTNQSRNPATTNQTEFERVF
T1 sequence (O60563 whole entry partner): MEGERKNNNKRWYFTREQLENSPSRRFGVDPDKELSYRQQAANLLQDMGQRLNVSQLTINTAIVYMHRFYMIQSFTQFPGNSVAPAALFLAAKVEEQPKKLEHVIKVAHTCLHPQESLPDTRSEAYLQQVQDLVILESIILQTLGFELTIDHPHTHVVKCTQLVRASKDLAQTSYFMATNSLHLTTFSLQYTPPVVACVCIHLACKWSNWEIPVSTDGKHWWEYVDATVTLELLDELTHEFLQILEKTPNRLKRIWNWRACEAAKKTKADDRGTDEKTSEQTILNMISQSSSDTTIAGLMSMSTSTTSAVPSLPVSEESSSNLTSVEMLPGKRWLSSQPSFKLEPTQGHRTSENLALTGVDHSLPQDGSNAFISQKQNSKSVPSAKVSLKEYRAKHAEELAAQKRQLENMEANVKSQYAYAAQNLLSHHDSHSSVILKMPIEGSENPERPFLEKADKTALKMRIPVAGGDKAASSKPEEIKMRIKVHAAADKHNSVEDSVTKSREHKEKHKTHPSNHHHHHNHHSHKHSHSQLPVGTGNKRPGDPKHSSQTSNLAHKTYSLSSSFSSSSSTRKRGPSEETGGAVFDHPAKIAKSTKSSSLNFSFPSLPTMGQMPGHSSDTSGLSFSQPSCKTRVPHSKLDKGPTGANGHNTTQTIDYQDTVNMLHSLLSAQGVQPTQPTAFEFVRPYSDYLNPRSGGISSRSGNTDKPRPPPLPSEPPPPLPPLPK
Chain of Ruvbl2 (Q9Y230 whole entry): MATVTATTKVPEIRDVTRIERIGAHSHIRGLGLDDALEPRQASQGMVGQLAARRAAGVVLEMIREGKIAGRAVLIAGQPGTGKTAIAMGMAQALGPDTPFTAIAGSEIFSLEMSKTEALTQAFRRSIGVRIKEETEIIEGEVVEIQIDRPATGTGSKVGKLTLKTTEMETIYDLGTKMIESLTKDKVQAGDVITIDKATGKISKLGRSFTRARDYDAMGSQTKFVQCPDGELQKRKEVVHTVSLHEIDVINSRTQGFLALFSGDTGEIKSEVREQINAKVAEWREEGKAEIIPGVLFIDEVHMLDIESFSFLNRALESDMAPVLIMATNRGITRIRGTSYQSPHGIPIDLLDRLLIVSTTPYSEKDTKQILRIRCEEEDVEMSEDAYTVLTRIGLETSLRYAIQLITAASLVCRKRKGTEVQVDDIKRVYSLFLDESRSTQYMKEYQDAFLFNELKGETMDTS

pull-down of CDK9 (CDK9) | pull-down of Ruvbl2 (Ruvbl2) | SMILES | clock phase of kidney (kidney clocks) | clock phase of SCN slice (SCN culture slice) | binding of BMAL1 at PER2 locus (PER2 locus) | binding of CRY2/RUVBL2 at PER2 locus (PER2 locus) | nascent transcription of E-box genes (E-box genes; 1, 2, 4 h post administration) | newly synthesized mRNA of the majority of genes (E-box genes; within the first hour)
– | – | OC[C@H]1O[C@@H](n2cnc3cc(Cl)c(Cl)cc32)[C@H](O)[C@@H]1O [DRB, 5,6-dichloro-1-β-D-ribobenzimidazole] | shift the phase | shift the phase | remained unchanged | released | all up-regulated | reduced
successfully isolated | can pull-down | O=C1N[C@H]2[C@H](CS[C@H]2CCCCC(=O)OC[C@H]2O[C@@H](n3cnc4cc(Cl)c(Cl)cc43)[C@H](O)[C@@H]2O)N1 [biotin-DRB, 5,6-dichloro-1-(5′-O-biotinyl-β-D-ribofuranosyl)-benzimidazole] | – | – | – | – | – | –
